Reference: patent EP0326329B1, “Quinazoline derivatives useful as insecticides” (Dow AgroSciences LLC, priority 1988, dated 1989)

tested on: Erysiphe graminis tritici (powdery mildew); experiment: Greenhouse Test 1, foliar spray fungicide screen (POWD MDEW), host wheat; format: in vivo; conditions: disease control rating, 400 ppm (+++ at 100 ppm)

SMILES	POWD MDEW
c1csc(CCOc2ncnc3ccccc23)c1 [Example 54, 4-[2-(2-thienyl)ethoxy]quinazoline]	++ (++ = 90-100% control at 400 ppm)
CC(=O)N(CCc1ccc2ccccc2c1)c1ncnc2ccccc12 [Example 81, N-[2-(2-naphthyl)ethyl]-N-4-quinazolinylacetamide]	+ (+ = 20-89% control at 400 ppm)
Fc1ccc(CCOc2ncnc3ccccc23)cc1 [Example 84, 4-[2-(4-fluorophenyl)ethoxy]quinazoline]	++ (++ = 90-100% control at 400 ppm)
Cc1ccc(CCOc2ncnc3ccccc23)cc1 [Example 87, 4-[2-(4-methylphenyl)ethoxy]quinazoline]	++ (++ = 90-100% control at 400 ppm)

tested on: Pyricularia oryzae (rice blast); experiment: not given; format: in vivo; conditions: disease control rating, foliar spray, host rice; 400 ppm (+++ at 100 ppm)

SMILES	RICE BLAST
c1csc(CCOc2ncnc3ccccc23)c1 [Example 54, 4-[2-(2-thienyl)ethoxy]quinazoline]	++ (++ = 90-100% control at 400 ppm)
CC(=O)N(CCc1ccc2ccccc2c1)c1ncnc2ccccc12 [Example 81, N-[2-(2-naphthyl)ethyl]-N-4-quinazolinylacetamide]	++ (++ = 90-100% control at 400 ppm)
Fc1ccc(CCOc2ncnc3ccccc23)cc1 [Example 84, 4-[2-(4-fluorophenyl)ethoxy]quinazoline]	++ (++ = 90-100% control at 400 ppm)
Cc1ccc(CCOc2ncnc3ccccc23)cc1 [Example 87, 4-[2-(4-methylphenyl)ethoxy]quinazoline]	+++ (+++ = 90-100% control at 100 ppm)

tested on: Puccinia recondita tritici (leaf rust); experiment: Greenhouse Test 1, foliar spray fungicide screen (LEAF RUST), host wheat; format: in vivo; conditions: disease control rating, 400 ppm (+++ at 100 ppm)

SMILES	LEAF RUST
c1csc(CCOc2ncnc3ccccc23)c1 [Example 54, 4-[2-(2-thienyl)ethoxy]quinazoline]	++ (++ = 90-100% control at 400 ppm)
CC(=O)N(CCc1ccc2ccccc2c1)c1ncnc2ccccc12 [Example 81, N-[2-(2-naphthyl)ethyl]-N-4-quinazolinylacetamide]	+ (+ = 20-89% control at 400 ppm)
Fc1ccc(CCOc2ncnc3ccccc23)cc1 [Example 84, 4-[2-(4-fluorophenyl)ethoxy]quinazoline]	+++ (+++ = 90-100% control at 100 ppm)
Cc1ccc(CCOc2ncnc3ccccc23)cc1 [Example 87, 4-[2-(4-methylphenyl)ethoxy]quinazoline]	++ (++ = 90-100% control at 400 ppm)

tested on: Botrytis cinerea (gray mold); experiment: Greenhouse Test 1, foliar spray fungicide screen (GRAY MOLD), host grape berries; format: in vivo; conditions: disease control rating, 400 ppm (+++ at 100 ppm)

SMILES	GRAY MOLD
c1csc(CCOc2ncnc3ccccc23)c1 [Example 54, 4-[2-(2-thienyl)ethoxy]quinazoline]	- (- = 0-19% control at 400 ppm)
CC(=O)N(CCc1ccc2ccccc2c1)c1ncnc2ccccc12 [Example 81, N-[2-(2-naphthyl)ethyl]-N-4-quinazolinylacetamide]	- (- = 0-19% control at 400 ppm)
Fc1ccc(CCOc2ncnc3ccccc23)cc1 [Example 84, 4-[2-(4-fluorophenyl)ethoxy]quinazoline]	- (- = 0-19% control at 400 ppm)
Cc1ccc(CCOc2ncnc3ccccc23)cc1 [Example 87, 4-[2-(4-methylphenyl)ethoxy]quinazoline]	- (- = 0-19% control at 400 ppm)

tested on: Pseudoperonospora cubensis (downy mildew); experiment: Greenhouse Test 1, foliar spray fungicide screen (DOWN MDEW), host squash; format: in vivo; conditions: disease control rating, 400 ppm (+++ at 100 ppm)

SMILES	DOWN MDEW
c1csc(CCOc2ncnc3ccccc23)c1 [Example 54, 4-[2-(2-thienyl)ethoxy]quinazoline]	++ (++ = 90-100% control at 400 ppm)
CC(=O)N(CCc1ccc2ccccc2c1)c1ncnc2ccccc12 [Example 81, N-[2-(2-naphthyl)ethyl]-N-4-quinazolinylacetamide]	+ (+ = 20-89% control at 400 ppm)
Fc1ccc(CCOc2ncnc3ccccc23)cc1 [Example 84, 4-[2-(4-fluorophenyl)ethoxy]quinazoline]	++ (++ = 90-100% control at 400 ppm)
Cc1ccc(CCOc2ncnc3ccccc23)cc1 [Example 87, 4-[2-(4-methylphenyl)ethoxy]quinazoline]	+++ (+++ = 90-100% control at 100 ppm)

tested on: Cercospora beticola (leaf spot); experiment: Greenhouse Test 1, foliar spray fungicide screen (LEAF SPOT), host sugar beet; format: in vivo; conditions: disease control rating, 400 ppm (+++ at 100 ppm)

SMILES	LEAF SPOT
c1csc(CCOc2ncnc3ccccc23)c1 [Example 54, 4-[2-(2-thienyl)ethoxy]quinazoline]	+ (+ = 20-89% control at 400 ppm)
CC(=O)N(CCc1ccc2ccccc2c1)c1ncnc2ccccc12 [Example 81, N-[2-(2-naphthyl)ethyl]-N-4-quinazolinylacetamide]	- (- = 0-19% control at 400 ppm)
Fc1ccc(CCOc2ncnc3ccccc23)cc1 [Example 84, 4-[2-(4-fluorophenyl)ethoxy]quinazoline]	- (- = 0-19% control at 400 ppm)
Cc1ccc(CCOc2ncnc3ccccc23)cc1 [Example 87, 4-[2-(4-methylphenyl)ethoxy]quinazoline]	+ (+ = 20-89% control at 400 ppm)

tested on: Venturia inaequalis (apple scab); experiment: Greenhouse Test 1, foliar spray fungicide screen (APPL SCAB), host apple seedling; format: in vivo; conditions: disease control rating, 400 ppm (+++ at 100 ppm)

SMILES	APPL SCAB
c1csc(CCOc2ncnc3ccccc23)c1 [Example 54, 4-[2-(2-thienyl)ethoxy]quinazoline]	+ (+ = 20-89% control at 400 ppm)
CC(=O)N(CCc1ccc2ccccc2c1)c1ncnc2ccccc12 [Example 81, N-[2-(2-naphthyl)ethyl]-N-4-quinazolinylacetamide]	+ (+ = 20-89% control at 400 ppm)
Fc1ccc(CCOc2ncnc3ccccc23)cc1 [Example 84, 4-[2-(4-fluorophenyl)ethoxy]quinazoline]	++ (++ = 90-100% control at 400 ppm)
Cc1ccc(CCOc2ncnc3ccccc23)cc1 [Example 87, 4-[2-(4-methylphenyl)ethoxy]quinazoline]	- (- = 0-19% control at 400 ppm)

tested on: Septoria tritici (leaf blotch); experiment: Greenhouse Test 1, foliar spray fungicide screen (LEAF BLOT), host wheat; format: in vivo; conditions: disease control rating, 400 ppm (+++ at 100 ppm)

SMILES	LEAF BLOT
c1csc(CCOc2ncnc3ccccc23)c1 [Example 54, 4-[2-(2-thienyl)ethoxy]quinazoline]	+ (+ = 20-89% control at 400 ppm)
CC(=O)N(CCc1ccc2ccccc2c1)c1ncnc2ccccc12 [Example 81, N-[2-(2-naphthyl)ethyl]-N-4-quinazolinylacetamide]	- (- = 0-19% control at 400 ppm)
Fc1ccc(CCOc2ncnc3ccccc23)cc1 [Example 84, 4-[2-(4-fluorophenyl)ethoxy]quinazoline]	+ (+ = 20-89% control at 400 ppm)
Cc1ccc(CCOc2ncnc3ccccc23)cc1 [Example 87, 4-[2-(4-methylphenyl)ethoxy]quinazoline]	- (- = 0-19% control at 400 ppm)

tested on: Southern corn rootworm (Diabrotica undecimpuctata howardi Barber); experiment: Mite/insect screen, soil treatment (CRW); format: in vivo; conditions: Diabrotica; percent mortality; soil treatment, CRW rate 12.00 ppm; read-out: CRW RESULTS %
In short: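 Compounds dissolved in acetone/alcohol (50:50) with Toximul R/S emulsifiers, diluted with water. Soil (15 g, with presoaked corn seed) treated with 1 mL test solution, dried 6–12 h, then five 2–3 instar larvae added; held at 23°C. Percent mortality and phytotoxicity scored after standard exposure periods.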

SMILES	mortality at 12 ppm [%]
c1csc(CCOc2ncnc3ccccc23)c1 [Example 54, 4-[2-(2-thienyl)ethoxy]quinazoline]	0
CC(=O)N(CCc1ccc2ccccc2c1)c1ncnc2ccccc12 [Example 81, N-[2-(2-naphthyl)ethyl]-N-4-quinazolinylacetamide]	0
Fc1ccc(CCOc2ncnc3ccccc23)cc1 [Example 84, 4-[2-(4-fluorophenyl)ethoxy]quinazoline]	0
Cc1ccc(CCOc2ncnc3ccccc23)cc1 [Example 87, 4-[2-(4-methylphenyl)ethoxy]quinazoline]	0

same assay, conditions: Diabrotica; percent mortality; soil treatment, CRW rate 24.00 ppm; read-out: CRW RESULTS %

SMILES	mortality at 24 ppm [%]
CC(=O)N(CCc1ccc2ccccc2c1)c1ncnc2ccccc12 [Example 81, N-[2-(2-naphthyl)ethyl]-N-4-quinazolinylacetamide]	0
Fc1ccc(CCOc2ncnc3ccccc23)cc1 [Example 84, 4-[2-(4-fluorophenyl)ethoxy]quinazoline]	40
Cc1ccc(CCOc2ncnc3ccccc23)cc1 [Example 87, 4-[2-(4-methylphenyl)ethoxy]quinazoline]	0

tested on: southern armyworm (Spodopetra eridania Cramer); experiment: Mite/insect screen, sprayed squash leaves (SAW); format: in vivo; conditions: Spodoptera eridania, percent mortality; spray rate 200 ppm; read-out: SAW RESULTS %
In short: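 For the armyworm test, two uninfested sprayed leaves were excised, once dry for an hour, and placed in a Petri dish holding larvae. Spray solutions came from an emulsifier-containing 50:50 acetone/alcohol formulation diluted with water and were applied to runoff.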

SMILES	mortality at 200 ppm [%]
c1csc(CCOc2ncnc3ccccc23)c1 [Example 54, 4-[2-(2-thienyl)ethoxy]quinazoline]	0
CC(=O)N(CCc1ccc2ccccc2c1)c1ncnc2ccccc12 [Example 81, N-[2-(2-naphthyl)ethyl]-N-4-quinazolinylacetamide]	0
Fc1ccc(CCOc2ncnc3ccccc23)cc1 [Example 84, 4-[2-(4-fluorophenyl)ethoxy]quinazoline]	0
Cc1ccc(CCOc2ncnc3ccccc23)cc1 [Example 87, 4-[2-(4-methylphenyl)ethoxy]quinazoline]	0

same assay, conditions: Spodoptera eridania, percent mortality; spray rate 400 ppm; read-out: SAW RESULTS %

SMILES	mortality at 400 ppm [%]
CC(=O)N(CCc1ccc2ccccc2c1)c1ncnc2ccccc12 [Example 81, N-[2-(2-naphthyl)ethyl]-N-4-quinazolinylacetamide]	0
Fc1ccc(CCOc2ncnc3ccccc23)cc1 [Example 84, 4-[2-(4-fluorophenyl)ethoxy]quinazoline]	0
Cc1ccc(CCOc2ncnc3ccccc23)cc1 [Example 87, 4-[2-(4-methylphenyl)ethoxy]quinazoline]	50

tested on: Twospotted spider mites (Tetranychus urticae Koch); experiment: Mite/insect screen, sprayed squash cotyledons (SM); format: in vivo; conditions: Tetranychus urticae, percent mortality; spray rate 200 ppm; read-out: SM RESULTS %
In short: (§1)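 Percent mortality and phytotoxicity are the read-outs, assessed after standard exposure periods. Test solutions, made in 50:50 acetone/alcohol with two sulfonate/nonionic emulsifier blends and diluted in water, are sprayed to runoff on both leaf surfaces, which then dry for one hour.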

SMILES	mortality at 200 ppm [%]
c1csc(CCOc2ncnc3ccccc23)c1 [Example 54, 4-[2-(2-thienyl)ethoxy]quinazoline]	0
CC(=O)N(CCc1ccc2ccccc2c1)c1ncnc2ccccc12 [Example 81, N-[2-(2-naphthyl)ethyl]-N-4-quinazolinylacetamide]	50
Fc1ccc(CCOc2ncnc3ccccc23)cc1 [Example 84, 4-[2-(4-fluorophenyl)ethoxy]quinazoline]	0
Cc1ccc(CCOc2ncnc3ccccc23)cc1 [Example 87, 4-[2-(4-methylphenyl)ethoxy]quinazoline]	90

same assay, conditions: Tetranychus urticae, percent mortality; spray rate 400 ppm; read-out: SM RESULTS %

SMILES	mortality at 400 ppm [%]
CC(=O)N(CCc1ccc2ccccc2c1)c1ncnc2ccccc12 [Example 81, N-[2-(2-naphthyl)ethyl]-N-4-quinazolinylacetamide]	0
Fc1ccc(CCOc2ncnc3ccccc23)cc1 [Example 84, 4-[2-(4-fluorophenyl)ethoxy]quinazoline]	0
Cc1ccc(CCOc2ncnc3ccccc23)cc1 [Example 87, 4-[2-(4-methylphenyl)ethoxy]quinazoline]	90

tested on: melon aphids (Aphis gossypii Glover); experiment: Mite/insect screen, sprayed squash cotyledons (MA); format: in vivo; conditions: Aphis gossypii, percent mortality; spray rate 200 ppm; read-out: MA RESULTS %
In short: as §1

SMILES	mortality at 200 ppm [%]
c1csc(CCOc2ncnc3ccccc23)c1 [Example 54, 4-[2-(2-thienyl)ethoxy]quinazoline]	0
CC(=O)N(CCc1ccc2ccccc2c1)c1ncnc2ccccc12 [Example 81, N-[2-(2-naphthyl)ethyl]-N-4-quinazolinylacetamide]	0
Fc1ccc(CCOc2ncnc3ccccc23)cc1 [Example 84, 4-[2-(4-fluorophenyl)ethoxy]quinazoline]	0
Cc1ccc(CCOc2ncnc3ccccc23)cc1 [Example 87, 4-[2-(4-methylphenyl)ethoxy]quinazoline]	100

same assay, conditions: Aphis gossypii, percent mortality; spray rate 400 ppm; read-out: MA RESULTS %

SMILES	mortality at 400 ppm [%]
CC(=O)N(CCc1ccc2ccccc2c1)c1ncnc2ccccc12 [Example 81, N-[2-(2-naphthyl)ethyl]-N-4-quinazolinylacetamide]	0
Fc1ccc(CCOc2ncnc3ccccc23)cc1 [Example 84, 4-[2-(4-fluorophenyl)ethoxy]quinazoline]	0
Cc1ccc(CCOc2ncnc3ccccc23)cc1 [Example 87, 4-[2-(4-methylphenyl)ethoxy]quinazoline]	100
